In patent US8124793B2, “Derivatives of ethylene methanedisulfonate as cancer chemotherapeutic agents” (priority 2007, dated 2012):

Assays:
Format in all cases: cell-based
BT-549 = test: NCI screen, growth of human tumor cells: Breast Cancer BT-549
How it was run: (§1)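 At least 60 data points describe each compound tested by NCI. Cancer type, molar concentration in the screen and percent growth make up the recorded data.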

OVCAR-3 = test: NCI screen, growth of human tumor cells: Ovarian Cancer OVCAR-3; settings: OVCAR-3, 10^−4 molar
How it was run: as §1

SF-295 = test: NCI screen, growth of human tumor cells: CNS Cancer SF-295
How it was run: as §1

HCC-2998 = test: NCI screen, growth of human tumor cells: HCC-2998 (listed under Non-Small Cell Lung)
How it was run: as §1

SR = test: NCI screen, growth of human tumor cells: Leukemia SR; settings: for % Growth: SR
How it was run: as §1

NCI-H226 = test: NCI screen, growth of human tumor cells: Non-Small Cell Lung NCI-H226
How it was run: as §1

MALME-3M = test: NCI screen, growth of human tumor cells: Melanoma MALME-3M; settings: 10^−4 molar
How it was run: as §1

CCRF-CEM = test: NCI screen, growth of human tumor cells: Leukemia CCRF-CEM; settings: for % Growth: CCRF-CEM
How it was run: as §1

DU-145 = test: NCI screen, growth of human tumor cells: Prostate Cancer DU-145; settings: DV-145, 10^−4 molar
How it was run: as §1

OVCAR-8 = test: NCI screen, growth of human tumor cells: Ovarian Cancer OVCAR-8
How it was run: as §1

OVCAR-5 = test: NCI screen, growth of human tumor cells: Ovarian Cancer OVCAR-5; settings: OVCAR-5, 10^−4 molar
How it was run: as §1

U-251 = test: NCI screen, growth of human tumor cells: CNS Cancer U-251
How it was run: as §1

SF-268 = test: NCI screen, growth of human tumor cells: CNS Cancer SF-268
How it was run: as §1

OVCAR-4 = test: NCI screen, growth of human tumor cells: Ovarian Cancer OVCAR-4; settings: OVCAR-4, 10^−4 molar
How it was run: as §1

NCI-H522 = test: NCI screen, growth of human tumor cells: Non-Small Cell Lung NCI-H522; settings: NCI-H522, 10^−4 molar
How it was run: as §1

human cancer cells = test: NCI screen summary over the cancers tested (negative growth of human cancer cells); settings: cancers with negative growth / cancers tested
Experimental: In the NCI screening process, each compound was tested and described by a minimum of 60 data points. The test data include, but are not limited to the type of cancer, the molar concentration used in the screen, and the percent growth of the cancer. In some cases, NMR and elemental analysis were used for structural assignment.
The derivatives in the tables are grouped using the same category as in the tables 1-6.

SNB-19 = test: NCI screen, growth of human tumor cells: CNS Cancer SNB-19
How it was run: as §1

TK-10 = test: NCI screen, growth of human tumor cells: Renal Cancer TK-10; settings: TK-10, 10^−4 molar
How it was run: as §1

UACC-257 = test: NCI screen, growth of human tumor cells: Melanoma UACC-257; settings: UACC-257, 10^−4 molar
How it was run: as §1

NCI-H23 = test: NCI screen, growth of human tumor cells: Non-Small Cell Lung NCI-H23
How it was run: as §1

MDA-MB-435 = test: NCI screen, growth of human tumor cells: Breast Cancer MDA-MB-435
How it was run: as §1

MDA-MB-231/ATCC = test: NCI screen, growth of human tumor cells: Breast Cancer MDA-MB-231/ATCC; settings: MDA-MB-231/ATCC (Breast Cancer), 10^−4 molar
How it was run: as §1

SF-539 = test: NCI screen, growth of human tumor cells: CNS Cancer SF-539
How it was run: as §1

MOLT-4 = test: NCI screen, growth of human tumor cells: Leukemia MOLT-4; settings: MOLT-4 (Leukemia), 10^−4 molar
How it was run: as §1

LOXIMVI = test: NCI screen, growth of human tumor cells: Melanoma LOXIMVI; settings: for % Growth: LOXIMVI
How it was run: as §1

PC-3 = test: NCI screen, growth of human tumor cells: Prostate Cancer PC-3; settings: PC-3, 10^−4 molar
How it was run: as §1

SNB-75 = test: NCI screen, growth of human tumor cells: CNS Cancer SNB-75
How it was run: as §1

AS49/ATCC = test: NCI screen, growth of human tumor cells: Non-Small Cell Lung AS49/ATCC; settings: A549/ATCC, 10^−4 molar
How it was run: as §1

MCF7/ADR-RES = test: NCI screen, growth of human tumor cells: Breast Cancer MCF7/ADR-RES; settings: MCF7/ADR-RES (Breast Cancer), 10^−4 molar
How it was run: as §1

EKVX = test: NCI screen, growth of human tumor cells: Non-Small Cell Lung EKVX; settings: EKVX, 10^−4 molar
How it was run: as §1

NCI-H322M = test: NCI screen, growth of human tumor cells: Non-Small Cell Lung NCI-H322M; settings: NCI-H322M, 10^−4 molar
How it was run: as §1

KM12 = test: NCI screen, growth of human tumor cells: Colon Cancer KM12; settings: KM12, 10^−4 molar
How it was run: as §1

CAKI-1 = test: NCI screen, growth of human tumor cells: Renal Cancer CAKI-1; settings: CAKI-1 (Renal Cancer), 10^−4 molar
How it was run: as §1

COLO205 = test: NCI screen, growth of human tumor cells: Colon Cancer COLO205; settings: COLO205, 10^−4 molar
How it was run: as §1

HCT-15 = test: NCI screen, growth of human tumor cells: Colon Cancer HCT-15; settings: HCT-15 (Colon Cancer), 10^−4 molar
How it was run: as §1

HT29 = test: NCI screen, growth of human tumor cells: Colon Cancer HT29; settings: HT29 (Colon Cancer), 10^−4 molar
How it was run: as §1

## CC1=C(CC2S(=O)(=O)OCCOS2(=O)=O)C(=O)c2ccccc2C1=O [NSC 693874, ethylene (3-methyl-1,4-naphtho-2-quinoyl)-1,1-ethanedisulfonate]
BT-549; BT-549, 10^−4 molar
  % Growth: −100%
OVCAR-3
  % Growth: −100%
SF-295; SF-295, 10^−4 molar
  % Growth: −100%
SF-295; SF-295, 10^−5 molar
  % Growth: 32%
HCC-2998; HCC-2998, 10^−4 molar
  % Growth: −100%
HCC-2998; HCC-2998, 10^−5 molar
  % Growth: 50%
SR; 10^−4 molar
  % Growth: −45%
SR; 10^−5 molar
  % Growth: −15%
SR; 10^−6 molar
  % Growth: 9%
SR; 10^−7 molar
  % Growth: 48%
SR; 10^−8 molar
  % Growth: 79%
NCI-H226; NCI-H226, 10^−4 molar
  % Growth: −82%
NCI-H226; NCI-H226, 10^−5 molar
  % Growth: 48%
MALME-3M; MALME-3M
  % Growth: −78%
CCRF-CEM; 10^−4 molar
  % Growth: −49%
CCRF-CEM; 10^−5 molar
  % Growth: 28%
DU-145
  % Growth: −94%
OVCAR-8; OVCAR-8, 10^−4 molar
  % Growth: −71%
OVCAR-5
  % Growth: −98%
U-251; U251, 10^−4 molar
  % Growth: −25%
U-251; U251, 10^−5 molar
  % Growth: 57%
SF-268; SF-268, 10^−4 molar
  % Growth: 10%
SF-268; SF-268, 10^−5 molar
  % Growth: 49%
OVCAR-4
  % Growth: −89%
NCI-H522
  % Growth: −69%
Human cancer cells; 10^−4 M conc.
  Percentage of cancers showing negative growth cancers tested: 98%
Human cancer cells; 10^−5 M conc.
  Percentage of cancers showing negative growth cancers tested: 12%
SNB-19; SNB-19, 10^−4 molar
  % Growth: −92%
TK-10
  % Growth: −100%
UACC-257
  % Growth: −100%
NCI-H23; NCI-H23, 10^−4 molar
  % Growth: −89%
NCI-H23; NCI-H23, 10^−5 molar
  % Growth: 62%
MDA-MB-435; MDA-MB-435, 10^−4 molar
  % Growth: −92%
MDA-MB-435; MDA-MB-435, 10^−5 molar
  % Growth: 54%
MDA-MB-231/ATCC
  percent of growth of human tumor cells: −22%
SF-539; SF-539, 10^−4 molar
  % Growth: −100%
SF-539; SF-539, 10^−5 molar
  % Growth: 51%
MOLT-4
  percent of growth of human tumor cells: −51%
LOXIMVI; 10^−4 molar
  % Growth: −95%
LOXIMVI; 10^−5 molar
  % Growth: 35%
PC-3
  % Growth: −80%
SNB-75; SNB-75, 10^−4 molar
  % Growth: −96%
SNB-75; SNB-75, 10^−5 molar
  % Growth: −21%
SNB-75; SNB-75, 10^−6 molar
  % Growth: 6%
SNB-75; SNB-75, 10^−7 molar
  % Growth: 27%
SNB-75; SNB-75, 10^−8 molar
  % Growth: 6%
AS49/ATCC
  % Growth: −93%
MCF7/ADR-RES
  percent of growth of human tumor cells: −41%
EKVX
  % Growth: −93%
NCI-H322M
  % Growth: −100%

## CC1(C)OCC(COC(=O)C(=O)C2(Cc3ccc4c(c3)C(=O)c3ccccc3C4=O)S(=O)(=O)OCCOS2(=O)=O)O1 (stereo not drawn) [NSC 737276]
BT-549; BT-549 (Breast Cancer), 10^−4 molar
  percent of growth of human tumor cells: −49%
OVCAR-3
  % Growth: −71%
SF-295; SF-295 (CNS Cancer), 10^−4 molar
  percent of growth of human tumor cells: −12%
HCC-2998; HCC-2998, 10^−4 molar
  % Growth: −96%
SR; SR (Leukemia), 10^−4 molar
  percent of growth of human tumor cells: 12%
NCI-H226; NCI-H226 (Non-Small Cell Lung), 10^−4 molar
  percent of growth of human tumor cells: 10%
MALME-3M; MALME-3M (Melanoma)
  percent of growth of human tumor cells: −50%
CCRF-CEM; CCRF-CEM (Leukemia), 10^−4 molar
  percent of growth of human tumor cells: −38%
DU-145
  % Growth: −81%
KM12
  % Growth: −74%
OVCAR-8; OVCAR-8 (Ovarian Cancer), 10^−4 molar
  percent of growth of human tumor cells: 5%
OVCAR-5
  % Growth: −89%
CAKI-1
  percent of growth of human tumor cells: 15%
U-251; U-251 (CNS Cancer), 10^−4 molar
  percent of growth of human tumor cells: −53%
SF-268; SF-268 (CNS Cancer), 10^−4 molar
  percent of growth of human tumor cells: −40%
OVCAR-4
  % Growth: −73%
NCI-H522
  % Growth: −91%
Human cancer cells; 10^−4 M conc.
  Percentage of cancers showing negative growth cancers tested: 10^−4 M conc. = 49/55 = 89%
COLO205
  % Growth: −96%
SNB-19; SNB-19 (CNS Cancer), 10^−4 molar
  percent of growth of human tumor cells: −59%
TK-10
  % Growth: −73%
UACC-257
  % Growth: −76%
NCI-H23; NCI-H23, 10^−4 molar
  % Growth: −75%
MDA-MB-231/ATCC
  percent of growth of human tumor cells: −9%
SF-539; SF-539 (CNS Cancer), 10^−4 molar
  percent of growth of human tumor cells: −43%
MOLT-4
  percent of growth of human tumor cells: −26%
LOXIMVI; LOXIMVI (Melanoma), 10^−4 molar
  percent of growth of human tumor cells: −48%
PC-3
  % Growth: −68%
HCT-15
  percent of growth of human tumor cells: −12%
SNB-75; SNB-75, 10^−4 molar
  % Growth: −87%
MCF7/ADR-RES
  percent of growth of human tumor cells: −29%
HT29
  percent of growth of human tumor cells: −25%
EKVX
  % Growth: −81%
NCI-H322M
  % Growth: −87%
